Converted amounts (≈) assume the structure as drawn.
Legend:
SK-MEL-28 = test: NCI single-dose growth inhibition screen; format: cell-based; conditions: Homo sapiens; Melanoma SK-MEL-28; single dose 10^−5 M
786-0 = test: NCI single-dose growth inhibition screen; format: cell-based; conditions: Homo sapiens; Renal Cancer 786-0; single dose 10^−5 M
MALME-3 M = test: NCI single-dose growth inhibition screen; format: cell-based; conditions: Homo sapiens; Melanoma MALME-3 M; single dose 10^−5 M
LOX IMVI = test: NCI single-dose growth inhibition screen; format: cell-based, human; conditions: Melanoma LOX IMVI, single dose 10^−5 M; for inhibition at 10 µM: Homo sapiens, LOX IMVI
NCI-H522 = test: NCI single-dose growth inhibition screen; format: cell-based; conditions: Homo sapiens; Non-Small Cell Lung Cancer NCI-H522; single dose 10^−5 M
HL-60(TB) = test: NCI single-dose growth inhibition screen; format: cell-based; conditions: Homo sapiens; Leukemia HL-60(TB); single dose 10^−5 M
A498 = test: NCI single-dose growth inhibition screen; format: cell-based, human; conditions: single dose 10^−5 M
SF-268 = test: NCI single-dose growth inhibition screen; format: cell-based; conditions: Homo sapiens; CNS Cancer SF-268; single dose 10^−5 M
human melanoma LOX IMVI = test: cells; conditions: for IC50: read-out: In vitro cytotoxicity (IC50) LOX IMVI (µM ± SEM)
[1] = test system: A498 renal cancer cell line; test: cells; conditions: Homo sapiens; for viability at 0.4 µM / viability at 1.6 µM / viability at 25 µM / viability at 100 µM: A498; for IC50: A498, read-out: In vitro cytotoxicity (IC50) A498 cell line (µM ± SEM)
UO-31 = test: NCI single-dose growth inhibition screen; format: cell-based, human; conditions: single dose 10^−5 M; for inhibition at 10 µM: Homo sapiens, UO-31, Renal Cancer UO-31
RXF 393 = test: NCI single-dose growth inhibition screen; format: cell-based; conditions: Homo sapiens; Renal Cancer RXF 393; single dose 10^−5 M
NCI-H460 = test: NCI single-dose growth inhibition screen; format: cell-based; conditions: Homo sapiens; Non-Small Cell Lung Cancer NCI-H460; single dose 10^−5 M
SN12C = test: NCI single-dose growth inhibition screen; format: cell-based; conditions: Homo sapiens; Renal Cancer SN12C; single dose 10^−5 M
SF-539 = test: NCI single-dose growth inhibition screen; format: cell-based; conditions: Homo sapiens; CNS Cancer SF-539; single dose 10^−5 M
A549/ATCC = test: NCI single-dose growth inhibition screen; format: cell-based; conditions: Homo sapiens; Non-Small Cell Lung Cancer A549/ATCC; single dose 10^−5 M
S. aureus ATCC 6538 = test: Antibacterial screening, agar cup diffusion method; format: cell-based; conditions: Gram + ve strain; for MIC: Staphylococcus aureus, ATCC6538, read-out: Minimum inhibitory concentrations (MIC, µM) S. aureus ATCC 6538
CAKI-1 = test: NCI single-dose growth inhibition screen; format: cell-based; conditions: Homo sapiens; Renal Cancer CAKI-1; single dose 10^−5 M
EKVX = test: NCI single-dose growth inhibition screen; format: cell-based; conditions: Homo sapiens; Non-Small Cell Lung Cancer EKVX; single dose 10^−5 M
MCF7 = test: NCI single-dose growth inhibition screen; format: cell-based, human; conditions: Homo sapiens, MCF7, Breast Cancer MCF7; single dose 10^−5 M
MDA-MB-468 = test: NCI single-dose growth inhibition screen; format: cell-based; conditions: Homo sapiens; Breast Cancer MDA-MB-468; single dose 10^−5 M
HS 578T = test: NCI single-dose growth inhibition screen; format: cell-based; conditions: Homo sapiens; Breast Cancer HS 578T; single dose 10^−5 M
[2] = test system: K. pneumoniae ATCC 10,031; test: Antibacterial screening, agar cup diffusion method; format: cell-based; conditions: Klebsiella pneumoniae, ATCC10, Gram –ve strain; read-out: Minimum inhibitory concentrations (MIC, µM) K. pneumoniae ATCC 10,031
BT-549 = test: NCI single-dose growth inhibition screen; format: cell-based; conditions: Homo sapiens; Breast Cancer BT-549; single dose 10^−5 M
SNB-19 = test: NCI single-dose growth inhibition screen; format: cell-based; conditions: Homo sapiens; CNS Cancer SNB-19; single dose 10^−5 M
OVCAR-8 = test: NCI single-dose growth inhibition screen; format: cell-based; conditions: Homo sapiens; Ovarian Cancer OVCAR-8; single dose 10^−5 M
[3] = test system: P. aeruginosa ATCC 27,853; test: Antibacterial screening, agar cup diffusion method; format: cell-based; conditions: Gram –ve strain; for MIC: Pseudomonas aeruginosa, ATCC27, read-out: Minimum inhibitory concentrations (MIC, µM) P. aeruginosa ATCC 27,853
Description: Anti-bacterial activity of the recently synthesized compounds 3a-k was evaluated at AUMC (Assiut University Mycological Centre), Assiut, Egypt. Assays were done against Gram-negative strains of K. pneumoniae (ATCC 100310, E. coli (ATCC 25922), Pseudomonas aeruginosa (ATCC 27853) and the Gram-positive S. aureus (ATCC 6538) strain utilizing standard agar cup diffusion method. The isolates from the four bacterial species examined were kept in TSB (Trypticase Soya Broth, Becton and Dickinson) with 10% glycerol at -70 °C and then subcultured on TSA (Trypticase Soya Agar, Becton and Dickinson) and TSB for 24 h at 37 °C former to inoculation. Bacterial isolates were then plated on sterile petri plates with 1 × 10^8 CFU/mL (0.5 McFarland turbidity) and 20 mL of Mueller Hinton Agar media (Oxoid) was then loaded. To ensure that the microorganisms were evenly dispersed, the plates were gently rotated before being left to harden on a level surface. Four equally spaced spherical-shaped wells (10 mm diameter) were painstakingly drilled using a sterilized cork bore after media solidification. All tested compounds under test underwent two-fold serial dilutions in a sequential manner. Three replications of 100 µL of each concentration were added to a well using a micropipette. Plates were then incubated for 24-hour at 37 °C. The average of the inhibition zones was then calculated. To determine the MICs, the natural logarithm of each diluted test substance’s concentration was plotted against the average area of the related inhibition zone. Following that, a regression line was created and the intercept on the ‘ln concentration” axis was determined, and the antilogarithm was calculated to indicate the MIC value[34],[63].

NCI-H23 = test: NCI single-dose growth inhibition screen; format: cell-based; conditions: Homo sapiens; Non-Small Cell Lung Cancer NCI-H23; single dose 10^−5 M
SR = test: NCI single-dose growth inhibition screen; format: cell-based; conditions: Homo sapiens; Leukemia SR; single dose 10^−5 M
M14 = test: NCI single-dose growth inhibition screen; format: cell-based; conditions: Homo sapiens; Melanoma M14; single dose 10^−5 M
Description: Following the guidelines established by the drug evaluation department of the National Cancer Institute (NCI), USA, all target compounds 3a–l were examined against 60 cancer cell lines at a single concentration of 10 µM.
The anti-cancer potential of the tested compounds was evaluated at the National cancer institute (NCI), USA, against 9 panels of 60 various cell lines derived from nine human tumours available usually at NCI library. The procedures for the screening were described in details in NCI website (dttp://www.dtp.nci.nih.gov.) and were done according to NCI protocols[60] . The anticancer screening was carried out at single dose of 10^−5 M, NCI, Bethesda, USA. The results obtained as growth inhibition (%).

E. coli ATCC 25,922 = test: Antibacterial screening, agar cup diffusion method; format: cell-based; conditions: Escherichia coli, ATCC25, Gram –ve strain; read-out: Minimum inhibitory concentrations (MIC, µM) E. coli ATCC 25,922

O=C(O)c1cn(C2CC2)c2cc(N3CCN(C(=O)CCCN4C(=O)S/C(=C\c5ccc(F)cc5)C4=O)CC3)c(F)cc2c1=O [3i]
inhibition at 10 µM (SK-MEL-28): 1.5%
inhibition at 10 µM (786-0): 18.2%
inhibition at 10 µM (MALME-3 M): 14.8%
inhibition at 10 µM (LOX IMVI): 51.3%
Growth Inhibition (%) (LOX IMVI): 51.3%
inhibition at 10 µM (NCI-H522): 22.9%
inhibition at 10 µM (HL-60(TB)): < 0%
inhibition at 10 µM (A498; Homo sapiens, A498, Renal Cancer A498): 41.5%
Growth Inhibition (%) (A498; Renal Cancer A498): 41.5%
inhibition at 10 µM (SF-268): 3.1%
viability at 0.4 µM (human melanoma LOX IMVI): 74.9%
viability at 1.6 µM (human melanoma LOX IMVI): 67.8%
viability at 25 µM (human melanoma LOX IMVI): 51.5%
viability at 100 µM (human melanoma LOX IMVI): 41.2%
IC50 (human melanoma LOX IMVI): 25.4 ± 1.43 µM
viability at 0.4 µM [1]: 95.7%
viability at 1.6 µM [1]: 83.5%
viability at 25 µM [1]: 65%
viability at 100 µM [1]: 52.3%
IC50 [1]: 147 ± 8.3 µM
inhibition at 10 µM (UO-31): 21.7%
inhibition at 10 µM (RXF 393): < 0%
inhibition at 10 µM (NCI-H460): < 0%
inhibition at 10 µM (SN12C): 2.2%
inhibition at 10 µM (SF-539): 5.8%
inhibition at 10 µM (A549/ATCC): 10.4%
Minimum inhibitory concentrations (MIC, µM) S. aureus ATCC 6538 (S. aureus ATCC 6538): did not show considerable anti-bacterial activity
MIC (S. aureus ATCC 6538): > 20 µM
inhibition at 10 µM (CAKI-1): 4.9%
inhibition at 10 µM (EKVX): < 0%
inhibition at 10 µM (MCF7): 1.3%
inhibition at 10 µM (MDA-MB-468): 7.6%
inhibition at 10 µM (HS 578T): 3%
MIC [2]: > 20 µM
inhibition at 10 µM (BT-549): 8.6%
inhibition at 10 µM (SNB-19): 6.2%
inhibition at 10 µM (OVCAR-8): 6.8%
Minimum inhibitory concentrations (MIC, µM) P. aeruginosa ATCC 27,853 [3]: did not show considerable anti-bacterial activity
MIC [3]: > 20 µM
inhibition at 10 µM (NCI-H23): 6.5%
inhibition at 10 µM (SR): 3.6%
inhibition at 10 µM (M14): 4.6%
MIC (E. coli ATCC 25,922): 0.54 µM (≈ 0.336 µg/mL)

O=C(O)c1cn(C2CC2)c2cc(N3CCN(C(=O)CCCN4C(=O)S/C(=C\c5ccc([N+](=O)[O-])cc5)C4=O)CC3)c(F)cc2c1=O [3k]
inhibition at 10 µM (SK-MEL-28): < 0%
inhibition at 10 µM (786-0): 14.1%
inhibition at 10 µM (MALME-3 M): < 0%
inhibition at 10 µM (LOX IMVI): 8.88%
Growth Inhibition (%) (LOX IMVI): 8.9%
inhibition at 10 µM (HL-60(TB)): < 0%
inhibition at 10 µM (SF-268): 13.3%
viability at 0.4 µM (human melanoma LOX IMVI): 110%
viability at 1.6 µM (human melanoma LOX IMVI): 102%
viability at 25 µM (human melanoma LOX IMVI): 80.2%
viability at 100 µM (human melanoma LOX IMVI): 65.4%
IC50 (human melanoma LOX IMVI): > 150 µM
viability at 0.4 µM [1]: 103%
viability at 1.6 µM [1]: 93.1%
viability at 25 µM [1]: 72.6%
viability at 100 µM [1]: 60.5%
IC50 [1]: > 150 µM
inhibition at 10 µM (UO-31): 42%
Growth Inhibition (%) (UO-31; Renal Cancer UO-31): 41.1%
inhibition at 10 µM (RXF 393): 47.9%
inhibition at 10 µM (NCI-H460): < 0%
inhibition at 10 µM (SN12C): 8.7%
inhibition at 10 µM (SF-539): 6%
inhibition at 10 µM (A549/ATCC): 5.5%
melting point: 299 to 300 °C
MIC (S. aureus ATCC 6538): > 20 µM
inhibition at 10 µM (CAKI-1): 19.5%
inhibition at 10 µM (EKVX): 24.4%
inhibition at 10 µM (MCF7): < 0%
inhibition at 10 µM (MDA-MB-468): < 0%
inhibition at 10 µM (BT-549): 1%
inhibition at 10 µM (SNB-19): < 0%
inhibition at 10 µM (OVCAR-8): < 0%
MIC [3]: > 20 µM
inhibition at 10 µM (NCI-H23): 6.2%
inhibition at 10 µM (SR): 9.7%
inhibition at 10 µM (M14): < 0%
MIC (E. coli ATCC 25,922): 0.25 µM (≈ 0.162 µg/mL)
